According to PubChem BioAssay AID220 (DTP/NCI, 2004):
Values joined by “and” are separate entries in the source; they are usually repeats but may differ in a detail not shown here. Identical values can stand only once. Records with an inconclusive call do not appear.

System: CD8F1 mice, subcutaneous mammary adenocarcinoma, T/C%
Assay: NCI In Vivo Anticancer Drug Screen. Data for tumor model Mammary Adenocarcinoma CD8F1 (subcutaneous) in CD8F1
Conditions: higher = larger tumour
Summary of the method: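 Compound-treated versus vehicle-treated mice with transplantable tumors; survival or tumor size compared as T/C.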

[1] = endpoint: median tumor weight (est.), dose: 25.0 mg/kg/injection, schedule: Q07DX005 (ip), vehicle: saline with Tween-80
[2] = endpoint: median tumor weight (est.), dose: 50.0 mg/kg/injection, schedule: Q07DX005 (ip), vehicle: saline with Tween-80
[3] = endpoint: mean tumor weight, dose: 25.0 mg/kg/injection, schedule: Q07DX005 (ip), vehicle: saline with Tween-80
[4] = endpoint: mean tumor weight, dose: 50.0 mg/kg/injection, schedule: Q07DX005 (ip), vehicle: saline with Tween-80
[5] = endpoint: mean tumor weight, dose: 100.0 mg/kg/injection, schedule: Q07DX005 (ip), vehicle: saline with Tween-80
[6] = endpoint: mean tumor weight, dose: 200.0 mg/kg/injection, schedule: Q07DX005 (ip), vehicle: saline with Tween-80

CC[C@@]1(O)C(=O)OCc2c1cc1n(c2=O)Cc2cc3cc(O)ccc3nc2-1
T/C (endpoint: median tumor weight change, dose: 1.85 mg/kg/injection, schedule: Q01DX001 (ip), vehicle: saline): 97 % of control
T/C (endpoint: median tumor weight change, dose: 7.5 mg/kg/injection, schedule: Q01DX001 (ip), vehicle: saline): 107 % of control
T/C (endpoint: median tumor weight change, dose: 15.0 mg/kg/injection, schedule: Q01DX001 (ip), vehicle: saline): 80 % of control
T/C (endpoint: median tumor weight change, dose: 30.0 mg/kg/injection, schedule: Q01DX001 (ip), vehicle: saline): 28 % of control

COc1cccc2c1C(=O)c1c(O)c3c(c(O)c1C2=O)C[C@@](O)(C(C)=O)C[C@@H]3OC1CC(N(C)C)C(O)C(C)O1 (some centres undefined)
T/C (endpoint: mean tumor weight, dose: 1.0 mg/kg/injection, schedule: Q07DX006 (ip), vehicle: water): 197 % of control
T/C (endpoint: mean tumor weight, dose: 2.0 mg/kg/injection, schedule: Q07DX006 (ip), vehicle: water): 73 % of control
T/C (endpoint: mean tumor weight, dose: 4.0 mg/kg/injection, schedule: Q07DX006 (ip), vehicle: water): 30 % of control
T/C (endpoint: mean tumor weight, dose: 8.0 mg/kg/injection, schedule: Q07DX006 (ip), vehicle: water): 1 % of control
T/C (endpoint: median tumor weight (est.), dose: 1.0 mg/kg/injection, schedule: Q07DX005 (ip), vehicle: water): 108 % of control
T/C (endpoint: median tumor weight (est.), dose: 2.0 mg/kg/injection, schedule: Q07DX005 (ip), vehicle: water): 63 % of control
T/C (endpoint: median tumor weight (est.), dose: 4.0 mg/kg/injection, schedule: Q07DX005 (ip), vehicle: water): 45 % of control
T/C (endpoint: median tumor weight (est.), dose: 8.0 mg/kg/injection, schedule: Q07DX005 (ip), vehicle: water): 42 % of control

OC1(CSc2ccccc2)CCCCC1
T/C (endpoint: median tumor weight change, dose: 1000.0 mg/kg/injection, schedule: Q01DX001 (ip), vehicle: saline with Tween-80): 13 % of control

CCC(C)Nc1ccc(N)cc1 (centres undefined)
T/C (endpoint: median tumor weight (est.), dose: 0.18 mg/kg/injection, schedule: Q07DX005 (ip), vehicle: Klucel (hydroxypropylcellulose) (HPC)): 90 % of control
T/C (endpoint: median tumor weight (est.), dose: 0.37 mg/kg/injection, schedule: Q07DX005 (ip), vehicle: Klucel (hydroxypropylcellulose) (HPC)): 92 % of control
T/C (endpoint: median tumor weight (est.), dose: 0.75 mg/kg/injection, schedule: Q07DX005 (ip), vehicle: Klucel (hydroxypropylcellulose) (HPC)): 86 % of control
T/C (endpoint: median tumor weight (est.), dose: 1.5 mg/kg/injection, schedule: Q07DX005 (ip), vehicle: Klucel (hydroxypropylcellulose) (HPC)): 107 % of control
T/C (endpoint: median tumor weight change, dose: 0.2 mg/kg/injection, schedule: Q01DX001 (ip), vehicle: Klucel (hydroxypropylcellulose) (HPC)): 123 % of control
T/C (endpoint: median tumor weight change, dose: 0.37 mg/kg/injection, schedule: Q01DX001 (ip), vehicle: Klucel (hydroxypropylcellulose) (HPC)): 93 % of control
T/C (endpoint: median tumor weight change, dose: 0.75 mg/kg/injection, schedule: Q01DX001 (ip), vehicle: Klucel (hydroxypropylcellulose) (HPC)): 89 % of control
T/C (endpoint: median tumor weight change, dose: 1.5 mg/kg/injection, schedule: Q01DX001 (ip), vehicle: Klucel (hydroxypropylcellulose) (HPC)): 101 % of control
T/C (endpoint: median tumor weight change, dose: 3.0 mg/kg/injection, schedule: Q01DX001 (ip), vehicle: Klucel (hydroxypropylcellulose) (HPC)): 119 % of control

O=C1C=C[C@H](O)[C@@]2(CO)O[C@@H]12
T/C (endpoint: median tumor weight change, dose: 3.12 mg/kg/injection, schedule: Q01DX001 (ip), vehicle: saline with Tween-80): 65 % of control
T/C (endpoint: median tumor weight change, dose: 6.25 mg/kg/injection, schedule: Q01DX001 (ip), vehicle: saline with Tween-80): 61 % of control
T/C (endpoint: median tumor weight change, dose: 12.5 mg/kg/injection, schedule: Q01DX001 (ip), vehicle: saline with Tween-80): 90 % of control

OC1CCCC2CCCNC12 (centres undefined)
T/C (endpoint: median tumor weight (est.), dose: 6.25 mg/kg/injection, schedule: Q07DX005 (ip), vehicle: saline with Tween-80): 206 % of control
T/C (endpoint: median tumor weight (est.), dose: 12.5 mg/kg/injection, schedule: Q07DX005 (ip), vehicle: saline with Tween-80): 102 % of control
T/C [1]: 171 % of control
T/C [2]: 73 % of control

C=CC(C)NC(=S)NNC(=S)NC (centres undefined)
T/C (endpoint: median tumor weight change, dose: 62.5 mg/kg/injection, schedule: Q01DX001 (ip), vehicle: saline + alcohol): 155 % of control
T/C (endpoint: median tumor weight change, dose: 125.0 mg/kg/injection, schedule: Q01DX001 (ip), vehicle: saline + alcohol): 164 % of control
T/C (endpoint: median tumor weight change, dose: 250.0 mg/kg/injection, schedule: Q01DX001 (ip), vehicle: saline + alcohol): 119 % of control
T/C (endpoint: median tumor weight change, dose: 500.0 mg/kg/injection, schedule: Q01DX001 (ip), vehicle: saline + alcohol): 82 % of control

Cc1cc2cc3cc(C)c(N)cc3nc2cc1N
T/C (endpoint: median tumor weight change, dose: 31.25 mg/kg/injection, schedule: Q01DX001 (ip), vehicle: saline with Tween-80): 59 % of control
T/C (endpoint: median tumor weight change, dose: 62.5 mg/kg/injection, schedule: Q01DX001 (ip), vehicle: saline with Tween-80): 72 % of control
T/C (endpoint: median tumor weight change, dose: 125.0 mg/kg/injection, schedule: Q01DX001 (ip), vehicle: saline with Tween-80): 42 % of control
T/C (endpoint: median tumor weight change, dose: 250.0 mg/kg/injection, schedule: Q01DX001 (ip), vehicle: saline with Tween-80): 36 % of control

O=P1(N(CCCl)CCCl)NCCCO1 (centres undefined)
T/C (endpoint: mean tumor weight, dose: 20.0 mg/kg/injection, schedule: Q01DX018 (ip), vehicle: saline): 8 % of control
T/C (endpoint: mean tumor weight, dose: 37.5 mg/kg/injection, schedule: Q07DX004 (ip), vehicle: saline): 3 % of control
T/C (endpoint: mean tumor weight, dose: 40.0 mg/kg/injection, schedule: Q01DX009 (ip), vehicle: saline): 4 % of control and 9 % of control
T/C (endpoint: mean tumor weight, dose: 50.0 mg/kg/injection, schedule: Q07DX004 (ip), vehicle: saline): 3 % of control
T/C (endpoint: median tumor weight (est.), dose: 10.0 mg/kg/injection, schedule: Q01DX005 (ip), vehicle: saline): 55 % of control
T/C (endpoint: median tumor weight (est.), dose: 20.0 mg/kg/injection, schedule: Q01DX005 (ip), vehicle: saline): 1 % of control
T/C (endpoint: median tumor weight (est.), dose: 25.0 mg/kg/injection, schedule: Q01DX005 (ip), vehicle: saline): 80 % of control
T/C (endpoint: median tumor weight (est.), dose: 37.5 mg/kg/injection, schedule: Q01DX005 (ip), vehicle: saline): 17 % of control
T/C (endpoint: median tumor weight (est.), dose: 37.5 mg/kg/injection, schedule: Q04DX005 (ip), vehicle: saline): 60 % of control
T/C (endpoint: median tumor weight (est.), dose: 40.0 mg/kg/injection, schedule: Q01DX005 (ip), vehicle: saline): 8 % of control
T/C (endpoint: median tumor weight (est.), dose: 50.0 mg/kg/injection, schedule: Q01DX005 (ip), vehicle: saline): 15 % of control
T/C (endpoint: median tumor weight (est.), dose: 50.0 mg/kg/injection, schedule: Q04DX005 (ip), vehicle: saline): 11 % of control
T/C (endpoint: median tumor weight (est.), dose: 50.0 mg/kg/injection, schedule: Q07DX005 (ip), vehicle: saline): 27 % of control
T/C (endpoint: median tumor weight (est.), dose: 67.0 mg/kg/injection, schedule: Q07DX005 (ip), vehicle: saline): 6 % of control
T/C (endpoint: median tumor weight (est.), dose: 75.0 mg/kg/injection, schedule: Q01DX005 (ip), vehicle: saline): 1 % of control
T/C (endpoint: median tumor weight (est.), dose: 75.0 mg/kg/injection, schedule: Q04DX005 (ip), vehicle: saline): 1 % of control
T/C (endpoint: median tumor weight (est.), dose: 75.0 mg/kg/injection, schedule: Q07DX005 (ip), vehicle: saline): 5 % of control
T/C (endpoint: median tumor weight (est.), dose: 80.0 mg/kg/injection, schedule: Q01DX005 (ip), vehicle: saline): 2 % of control
T/C (endpoint: median tumor weight (est.), dose: 100.0 mg/kg/injection, schedule: Q07DX005 (ip), vehicle: saline): 1 % of control
T/C (endpoint: median tumor weight (est.), dose: 111.0 mg/kg/injection, schedule: Q01DX001 (ip), vehicle: saline): 32 % of control
T/C (endpoint: median tumor weight (est.), dose: 167.0 mg/kg/injection, schedule: Q01DX001 (ip), vehicle: saline): 34 % of control
T/C (endpoint: median tumor weight (est.), dose: 250.0 mg/kg/injection, schedule: Q01DX001 (ip), vehicle: saline): 9 % of control
T/C (endpoint: median tumor weight change, dose: 25.0 mg/kg/injection, schedule: Q01DX001 (ip), vehicle: saline): 91 % of control
T/C (endpoint: median tumor weight change, dose: 50.0 mg/kg/injection, schedule: Q01DX001 (ip), vehicle: saline): 42 % of control and 62 % of control
T/C (endpoint: median tumor weight change, dose: 100.0 mg/kg/injection, schedule: Q01DX001 (ip), vehicle: saline): 5 % of control and 29 % of control
T/C (endpoint: median tumor weight change, dose: 400.0 mg/kg/injection, schedule: Q01DX001 (ip), vehicle: saline): -56 % of control

C=CS(=O)(=O)c1ccccc1
T/C [3]: 110 % of control
T/C [4]: 117 % of control
T/C [5]: 114 % of control
T/C [6]: 154 % of control

C[C@]12CC[C@@H]3c4ccc(OC(=O)Cc5ccc(N(CCCl)CCCl)cc5)cc4CC[C@H]3[C@@H]1CC[C@@H]2OC(=O)Cc1ccc(N(CCCl)CCCl)cc1
T/C [3]: 54 % of control
T/C [4]: 47 % of control
T/C [5]: 45 % of control
T/C [6]: 38 % of control
T/C (endpoint: mean tumor weight, dose: 400.0 mg/kg/injection, schedule: Q07DX005 (ip), vehicle: saline with Tween-80): 65 % of control
T/C [1]: 79 % of control and 93 % of control
T/C [2]: 45 % of control and 51 % of control
T/C (endpoint: median tumor weight (est.), dose: 400.0 mg/kg/injection, schedule: Q07DX005 (ip), vehicle: saline with Tween-80): 10 % of control

CC1(C)OCC(CO)(Nc2nc(N3CC3)nc(N3CC3)n2)CO1
T/C (endpoint: median tumor weight (est.), dose: 1.25 mg/kg/injection, schedule: Q07DX005 (ip), vehicle: saline): 41 % of control
T/C (endpoint: median tumor weight (est.), dose: 2.5 mg/kg/injection, schedule: Q07DX005 (ip), vehicle: saline): 36 % of control
T/C (endpoint: median tumor weight (est.), dose: 5.0 mg/kg/injection, schedule: Q07DX005 (ip), vehicle: saline): 18 % of control
T/C (endpoint: median tumor weight (est.), dose: 10.0 mg/kg/injection, schedule: Q07DX005 (ip), vehicle: saline): 6 % of control
